Test results reported in patent US20240277658A1, “NLRP3 ACTIVATORS FOR USE IN THE TREATMENT OF INFECTIOUS DISEASES OR CANCER BY ACTIVATING NLRP3 INFLAMMASOME” (ALBERT-LUDWIGS-UNIVERSITÄT FREIBURG, priority 2020, published 2024).
“And” between values parts separate entries of the source, which are not always exact repeats. Equal values may be shown once. Read-outs that look alike come from different tables or passages of the source.

How the values were obtained:
BMDCs = experiment: LDH release (lytic cell death, pyroptosis) from LPS-primed BMDCs; type: cell-based, mouse; details: compound 50 μM; for Average (% positive control): LDH release, positive control nigericin 5 μM; for cytotoxicity at 50 µM: Mus musculus, BMDC, LPS-primed BMDCs
How it was run: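 LDH released into medium, detected colorimetrically, served as the pyroptosis read-out in triplicate. LPS-primed (50 ng ml^−1, 3 h) murine bone marrow-derived dendritic cells received test compounds, typically 50 μM, or nigericin (5 μM), R837 or CL097 (100 μM) for 3 hours.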

NLRP3 inflammasome = target: T1, NLRP3 inflammasome (Mus musculus, UniProt Q8R4B8); experiment: IL-1β release from LPS-primed BMDCs (ELISA) as readout of NLRP3 inflammasome activation; type: cell-based; details: compound 50 μM; for Average (% positive control): IL-1β release, positive control nigericin 5 μM; for Average IL-1β / IL-1β: LPS-primed BMDCs; for IL-1β: single replicates
T1 construct: endogenous in cells; host or cells: primary mouse bone marrow-derived dendritic cells (BMDCs), LPS-primed
T1 sequence (Q8R4B8 whole entry): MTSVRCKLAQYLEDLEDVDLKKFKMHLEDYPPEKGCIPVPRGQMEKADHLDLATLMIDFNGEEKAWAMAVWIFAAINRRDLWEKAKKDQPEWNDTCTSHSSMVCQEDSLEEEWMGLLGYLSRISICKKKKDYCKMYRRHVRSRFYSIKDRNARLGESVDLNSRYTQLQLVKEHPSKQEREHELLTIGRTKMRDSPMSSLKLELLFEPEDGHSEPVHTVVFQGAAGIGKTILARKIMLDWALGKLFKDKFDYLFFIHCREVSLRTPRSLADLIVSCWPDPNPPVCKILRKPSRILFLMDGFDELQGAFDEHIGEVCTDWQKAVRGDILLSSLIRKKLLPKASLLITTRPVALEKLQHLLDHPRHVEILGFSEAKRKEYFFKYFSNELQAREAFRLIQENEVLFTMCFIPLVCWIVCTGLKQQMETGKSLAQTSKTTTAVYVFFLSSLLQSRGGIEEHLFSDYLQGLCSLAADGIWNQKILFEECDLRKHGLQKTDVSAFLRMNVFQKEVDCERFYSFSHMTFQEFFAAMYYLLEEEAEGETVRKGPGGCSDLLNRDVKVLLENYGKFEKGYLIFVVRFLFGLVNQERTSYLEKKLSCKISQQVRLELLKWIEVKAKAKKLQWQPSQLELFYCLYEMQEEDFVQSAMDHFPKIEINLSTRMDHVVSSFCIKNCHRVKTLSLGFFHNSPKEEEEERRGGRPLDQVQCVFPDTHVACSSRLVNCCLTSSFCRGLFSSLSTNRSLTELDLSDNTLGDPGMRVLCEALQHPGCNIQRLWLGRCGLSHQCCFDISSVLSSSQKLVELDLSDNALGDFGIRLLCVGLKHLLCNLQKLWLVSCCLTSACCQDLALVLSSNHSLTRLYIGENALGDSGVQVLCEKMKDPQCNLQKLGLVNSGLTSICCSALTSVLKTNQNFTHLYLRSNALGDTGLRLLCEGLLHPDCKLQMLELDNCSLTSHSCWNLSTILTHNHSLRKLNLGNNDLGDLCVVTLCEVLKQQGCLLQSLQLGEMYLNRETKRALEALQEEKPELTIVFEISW
How it was run: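 NLRP3 inflammasome activation was read out as IL-1β released into the supernatant, measured by ELISA. Murine BMDCs were primed with LPS (50 ng ml^−1, 3 hours), then incubated with compounds for 3 hours, with each condition run in three technical replicates. Nigericin at 5 μM acted as the positive control activator, and IL-1β release was also expressed as a percentage of that control.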

[1] = read-out: Average LDH release (% of max.)
[2] = single replicates, read-out: LDH release (% of max.)

| Compound | Average (% positive control) (NLRP3 inflammasome) | Average IL-1β (NLRP3 inflammasome) [ng/mL] | Average (% positive control) (BMDCs) | cytotoxicity at 50 µM (BMDCs; [1]) [%] | cytotoxicity at 50 µM (BMDCs; [2]) [%] | IL-1β (NLRP3 inflammasome) |
| --- | --- | --- | --- | --- | --- | --- |
| CC(C)CC(NC(=O)Nc1cccc(N2CCNC2=O)c1)c1nc(-c2nnc[nH]2)no1 (stereo not drawn) [L01.010, 3-{3-methyl-1-[3-(4H-1,2,4-triazol-3-yl)-1,2,4-oxadiazol-5-yl]butyl}-1-[3-(2-oxoimidazolidin-1-yl)phenyl]urea] | 0.822 | 0.059 | 7.822 | 5.72 | 5.64 | 0.065 ng/mL and 0.059 ng/mL and 0.053 ng/mL |
| CCOc1ccc(NC(=O)NCc2nc(-c3cccc(OC)c3)no2)cc1OCC [L01.013, 1-(3,4-diethoxyphenyl)-3-{[3-(3-methoxyphen-yl)-1,2,4-oxadiazol-5-yl]methyl}urea] | 1.677 | 0.120 | 10.303 | 7.54 | 8.75 | 0.118 ng/mL and 0.126 ng/mL and 0.117 ng/mL |
| O=C(Nc1ccccc1)Nc1ccc(NC(=O)C(F)F)cc1 [L01.016, 2,2-difluoro-N-{4-[(phenylcarbamoyl)-amino]phenyl}acet-amide] | 10.857 | 0.778 | 17.216 | 12.6 | 11.6 | 0.755 ng/mL and 0.723 ng/mL and 0.857 ng/mL |
| O=C(Nc1ccccc1)Nc1cccc(Br)c1 [L01.020, 3-(3-bromophenyl)-1-phenylurea] | 3.256 | 0.233 | 14.712 | 10.8 | 11.6 | 0.236 ng/mL and 0.231 ng/mL and 0.233 ng/mL |
| CC(C)C(=O)Nc1cccc(NC(=O)Nc2ccccc2)c1 [L01.023, 2-methyl-N-{3-[(phenyl-carbamoyl)amino]phen-yl}propanamide] | 1.021 | 0.073 | 7.611 | 5.57 | 5.1 | 0.065 ng/mL and 0.075 ng/mL and 0.080 ng/mL |
| Cc1cc(NC(=O)Nc2ccccc2)ccc1N1CCCC1 [L01.025, 3-[3-methyl-4-(pyrrol-idin-1-yl)phenyl]-1-phenylurea] | 5.130 | 0.368 | 19.631 | 14.4 | 15 | 0.333 ng/mL and 0.280 ng/mL and 0.490 ng/mL |
| COc1ccc(NC(=O)Nc2ccccc2)cc1Cl [L01.026, 3-(3-chloro-4-methoxy-phenyl)-1-phenylurea] | 6.911 | 0.495 | 14.776 | 10.8 | 9.23 | 0.452 ng/mL and 0.473 ng/mL and 0.562 ng/mL |
| O=C(Nc1ccccc1)Nc1cccc(NC(=O)c2ccoc2)c1 [L01.027, N-{3-[(phenylcarbamo-yl)amino]phenyl}furan-3-carboxamide] | 2.451 | 0.176 | 9.387 | 6.87 | 5.2 | 0.149 ng/mL and 0.197 ng/mL and 0.181 ng/mL |
| Cc1ccc(NC(=O)Nc2ccccc2)cc1NC(=O)NC1CC1 [L01.028, 3-cyclopropyl-1-{2-methyl-5-[(phenyl-carbamoyl)amino]-phenyl}urea] | 9.988 | 0.716 | 19.825 | 14.5 | 12.6 | 0.686 ng/mL and 0.757 ng/mL and 0.705 ng/mL |
| O=C1CN(c2ccccc2)C(=O)N1Cc1nc(-c2ccco2)no1 [L01.033, 3-{[3-(furan-2-yl)-1,2,4-oxadiazol-5-yl]methyl}-1-phenylimidazolidine-2,4-dione] | 2.698 | 0.193 | 11.108 | 8.13 | 8 | 0.197 ng/ml (2×) and 0.186 ng/ml |
| CS(=O)(=O)c1cc(NC(=O)Nc2ccccc2)ccc1Cl [L01.035, 3-(4-chloro-3-methane-sulfonylphenyl)-1-phenylurea] | 3.211 | 0.230 | 11.044 | 8.08 | 8.46 | 0.321 ng/mL and 0.189 ng/mL and 0.181 ng/mL |

Second part, led by results:

| Average (% positive control) (NLRP3 inflammasome) | Average IL-1β (NLRP3 inflammasome) [ng/mL] | Compound | Average (% positive control) (BMDCs) | cytotoxicity at 50 µM (BMDCs; [1]) [%] | cytotoxicity at 50 µM (BMDCs; [2]) [%] | IL-1β (NLRP3 inflammasome) |
| --- | --- | --- | --- | --- | --- | --- |
| 1.956 | 0.140 | N#Cc1ccc(NC(=O)Nc2ccccc2)cc1 [L01.038, 1-(4-cyanophenyl)-3-phenylurea] | 16.337 | 12 | 12.8 | 0.166 ng/mL and 0.127 ng/mL and 0.128 ng/mL |
| 23.826 | 1.708 | Cc1ccc(NC(=O)Nc2ccccc2)cc1NC(=O)NC(C)C [L01.041, 3-(4-methyl-3-[(propan-2-yl)carbamoylamino}-phenyl)-1-phenylurea] | 32.832 | 24 | 24.4 | 1.508 ng/mL and 1.847 ng/mL and 1.769 ng/mL |
| 0.826 | 0.059 | O=C(NCc1nc(-c2cccnc2)no1)Nc1ccc([N+](=O)[O-])cc1Cl [L01.042, 1-(2-chloro-4-nitrophen-yl)-3-{[3-(pyridin-3-yl)-1,2,4-oxadiazol-5-yl]-methyl}urea] | 9.993 | 7.31 | 7.09 | 0.060 ng/mL and 0.069 ng/mL and 0.048 ng/mL |
| 3.697 | 0.265 | COc1ccccc1NC(=O)NCc1nc(-c2cccnc2)no1 [L01.043, 1-(2-methoxyphenyl)-3-{[3-(pyridin-3-yl)-1,2,4-oxadiazol-5-yl]methyl}-urea] | 11.039 | 8.08 | 8.07 | 0.282 ng/mL and 0.272 ng/mL and 0.242 ng/mL |
| 1.568 | 0.112 | O=C(Nc1ccccc1)Nc1cccc(N2CCOC2=O)c1 [L01.045, 1-[3-(2-oxo-1,3-oxazol-idin-3-yl)phenyl]-3-phenylurea] | 7.094 | 5.19 | 5.98 | 0.103 ng/mL and 0.116 ng/mL and 0.118 ng/mL |
| 7.117 | 0.510 | CC(C)c1ccc(NC(=O)Nc2ccccc2)cc1 [L01.047, 1-phenyl-3-[4-(propan-2-yl)phenyl]urea] | 16.514 | 12.1 | 12.1 | 0.505 ng/mL and 0.513 ng/mL and 0.512 ng/mL |
| 4.189 | 0.300 | O=C1CN(c2ccccc2)C(=O)N1Cc1nc(-c2ccc(Cl)cc2)no1 [L01.049, 3-{[3-(4-chlorophenyl)-1,2,4-oxadiazol-5-yl]-methyl}-1-phenylimid-azolidine-2,4-dione] | 16.093 | 11.8 | 12.6 | 0.330 ng/mL and 0.251 ng/mL and 0.319 ng/mL |
